From patent publication US10919896B2, “Preparation and uses of pyrimidinone derivatives” (Cancer Research Technology Limited, priority 2016, dated 2021) come the findings set out here.

Counter-ions that a name gives are not always drawn.

Assay [1] relates to Cdc7 (pS40MCM2 levels in HCT116 cells). Nature of the assay: Cdc7 Cell Pharmacodynamics Assay Method 2B: pS40MCM2 levels in HCT116 cells, 18 hours. The format is cell-based. Particulars: Homo sapiens, HCT-116, read-out: Biomarker Method 2B (pEC50) (converted). In a few lines: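 HCT116 cells seeded at 20,000/well, settled overnight, then treated with compound (1:400 dilution from compound plate) for 6 h (Method 2A) or 18 h (Method 2B) at 37° C. Lysates captured on total-MCM2 antibody plates; pS40 MCM2 detected with rabbit anti-pMCM2 Ser40, HRP secondary and chemiluminescent substrate.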

Another assay has as its target Cdc7/ASK (Homo sapiens, UniProt O00311). Nature of the assay: Cdc7 Biochemical Assay Method 4: off-chip mobility shift assay (Carna Biosciences). On the set-up: purchased Carna Biosciences; host or cells: baculovirus expression system. As to conditions: off-chip MSA, MCM2 peptide, 5 hours; read-out: Biochemical Method 4 (pIC50) (converted). As for the experimental part:
This protocol describes a method for assaying Cdc7/ASK for activity. The assay is an off-chip mobility shift assay (MSA) run at Carna Biosciences.
1. Preparation of Test Compound Solution.
The test compound was dissolved in and diluted with dimethylsulfoxide (DMSO) to achieve 100-fold higher concentration which was specified by the sponsor. Then the solution was further 25-fold diluted with assay buffer to make the final test compound solution. Reference compounds for assay control were prepared similarly.
Cdc7/ASK: Full-length human Cdc7 [1-574(end) amino acids of accession number NP_003494.1] was co-expressed as N-terminal GST-fusion protein (92 kDa) with Dbf4(ASK) [1-674(end) amino acids of accession number NP_006707.1] using baculovirus expression system. GST-Cdc7 was purified by using glutathione sepharose chromatography.
3. Assay Reagents and Procedures
Off-chip Mobility Shift Assay (MSA)
1) The […] of ×2 kinase solution were prepared with assay buffer (20 mM HEPES, 0.01% Triton X-100, 1 mM DTT, pH 7.5) and mixed and incubated in a well of polypropylene 384 well microplate for 5 hours at room temperature. 2) […] of Termination Buffer (QuickScout Screening Assist MSA; Carna Biosciences) was added to the well. 3) The reaction mixture was applied to LabChip system (Perkin Elmer), and the product and substrate peptide peaks were separated and quantitated. 4) The kinase reaction was evaluated by the product ratio calculated from peak heights of product (P) and substrate (S) peptides (P/(P+S)).
Reaction time is 5 hours.
The readout value of reaction control (complete reaction mixture) was set as a 0% inhibition, and the readout value of background (Enzyme(−)) was set as a 100% inhibition, then the percent inhibition of each test solution was calculated.
IC50 value was calculated from concentration vs. % Inhibition curves by fitting to a four parameter logistic curve.

Sequence of Cdc7/ASK (O00311 whole entry): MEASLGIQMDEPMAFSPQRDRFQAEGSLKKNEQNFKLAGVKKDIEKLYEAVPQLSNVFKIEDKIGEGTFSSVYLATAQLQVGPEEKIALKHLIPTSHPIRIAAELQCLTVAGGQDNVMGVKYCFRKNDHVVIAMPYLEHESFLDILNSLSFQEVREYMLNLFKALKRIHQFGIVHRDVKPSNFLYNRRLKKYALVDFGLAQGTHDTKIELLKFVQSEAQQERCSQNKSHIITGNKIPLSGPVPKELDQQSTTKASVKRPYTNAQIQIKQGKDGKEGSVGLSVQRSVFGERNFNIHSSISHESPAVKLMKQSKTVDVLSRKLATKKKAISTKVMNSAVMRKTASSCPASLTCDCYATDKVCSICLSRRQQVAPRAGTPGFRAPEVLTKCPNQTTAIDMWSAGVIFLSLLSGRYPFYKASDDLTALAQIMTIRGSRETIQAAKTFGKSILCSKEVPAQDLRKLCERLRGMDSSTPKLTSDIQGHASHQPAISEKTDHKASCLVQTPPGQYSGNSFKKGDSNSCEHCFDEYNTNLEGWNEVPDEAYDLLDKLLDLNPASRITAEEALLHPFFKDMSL
Sequence of Cdc7/ASK (Q9UBU7 whole entry partner): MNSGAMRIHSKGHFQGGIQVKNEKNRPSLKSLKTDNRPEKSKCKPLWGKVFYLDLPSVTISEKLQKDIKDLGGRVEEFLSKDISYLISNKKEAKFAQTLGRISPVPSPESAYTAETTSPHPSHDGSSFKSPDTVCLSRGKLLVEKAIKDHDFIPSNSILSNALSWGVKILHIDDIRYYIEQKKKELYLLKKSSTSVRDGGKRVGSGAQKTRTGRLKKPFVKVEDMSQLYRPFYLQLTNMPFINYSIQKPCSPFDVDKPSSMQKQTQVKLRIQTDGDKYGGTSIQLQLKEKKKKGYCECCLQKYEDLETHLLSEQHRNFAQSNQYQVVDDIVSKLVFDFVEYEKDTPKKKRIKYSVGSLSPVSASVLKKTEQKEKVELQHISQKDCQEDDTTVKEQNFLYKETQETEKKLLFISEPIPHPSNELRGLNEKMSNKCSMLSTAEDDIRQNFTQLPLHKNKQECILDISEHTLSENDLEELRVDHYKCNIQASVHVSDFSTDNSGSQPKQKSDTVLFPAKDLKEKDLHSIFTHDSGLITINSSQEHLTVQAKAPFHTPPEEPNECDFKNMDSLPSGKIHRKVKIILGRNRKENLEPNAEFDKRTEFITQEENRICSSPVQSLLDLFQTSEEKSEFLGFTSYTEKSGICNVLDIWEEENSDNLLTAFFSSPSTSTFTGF

Turning to `O=c1[nH]c(-c2ccnc(F)c2)nc(N2CCNCC(F)(F)C2)c1Cl` [Compound 312, 5-chloro-4-(6,6-difluoro-1,4-diazepan-1-yl)-2-(2-fluoro-4-pyridyl)-1H-pyrimidin-6-one hydrochloride], the EC50 in assay [1] is 7.59 nM. The IC50 at Cdc7/ASK was 3.72 nM.
For `C[C@@H]1CNCCN1c1nc(-c2ccnc(F)c2)[nH]c(=O)c1Cl` [Compound 323] the same measures were 5.62 nM and 3.09 nM.
As to `O=c1[nH]c(-c2ccnc(F)c2)nc(N2CCCC(F)(F)C2)c1Cl` [Compound 90, 5-chloro-4-(3,3-difluoro-1-piperidyl)-2-(2-fluoro-4-pyridyl)-1H-pyrimidin-6-one], the EC50 in assay [1] is 13.5 nM.
